Calls of active or inactive are those of the source. The rule behind the calls is not given here.
Experiments:
[1] = Inhibition of 4-DMATS (unknown origin)
[2] = biological target: T1, Farnesyl pyrophosphate synthase (Homo sapiens, UniProt P14324); experiment: Inhibition of N-terminal hexaHis-tagged human FPPS (6 to 353 residues) expressed in Escherichia coli using GPP and IPP as substrate by enzyme coupled assay
T1 sequence (P14324 whole entry): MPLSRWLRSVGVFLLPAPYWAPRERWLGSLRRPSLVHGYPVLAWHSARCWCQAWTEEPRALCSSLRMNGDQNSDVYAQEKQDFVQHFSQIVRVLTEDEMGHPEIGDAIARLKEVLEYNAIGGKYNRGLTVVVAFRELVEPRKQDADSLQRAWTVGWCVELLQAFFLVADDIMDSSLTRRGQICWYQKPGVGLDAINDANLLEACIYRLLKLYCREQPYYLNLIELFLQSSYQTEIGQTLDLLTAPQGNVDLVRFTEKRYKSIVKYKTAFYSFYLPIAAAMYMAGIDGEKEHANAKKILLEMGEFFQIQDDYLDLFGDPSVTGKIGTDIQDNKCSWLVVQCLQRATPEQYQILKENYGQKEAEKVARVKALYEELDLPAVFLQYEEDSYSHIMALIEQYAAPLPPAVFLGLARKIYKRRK

[3] = Inhibition of full-length N-terminal hexaHis-tagged Escherichia coli type 1 IDI using IPP as substrate by enzyme coupled assay
[4] = Competitive inhibition of full-length N-terminal hexaHis-tagged Escherichia coli type 1 IDI using varying levels of IPP as substrate by Line weaver Burk plot analysis
Claviceps purpurea = experiment: Inhibition of Claviceps purpurea type 1 IDI
[5] = Competitive inhibition of recombinant N-terminal hexaHis-tagged Staphylococcus aureus MS4 DSQS expressed in Escherichia coli Rosetta(DE3) using varying levels of FPP as substrate by Line weaver Burk plot analysis

Row | Compound | inhibition [1] | IC50 [2] | IC50 [3] | Ki [4] | Kdiss (Claviceps purpurea) | Ki [5]
1 | NCP(=O)(O)CP(=O)(O)O | inactive | 150 µM | 15 µM | 4.2 µM | – | –
2 | CN(C)CCOP(=O)(O)OP(=O)(O)O | – | – | – | – | < 1.2 10^-10M | –
3 | CC(C)CCCC(C)CCCN(C)C(=O)NCP(=O)(O)CP(=O)(O)O (stereo unspecified) | – | – | – | – | – | 0.61 µM
4 | NC(N)=NCP(=O)(O)CP(=O)(O)O | inactive | 233 µM | 0.3 µM | 0.12 µM | – | –
5 | CC(C)=CCC/C(C)=C/CC/[N+](C)=C(\N)NCP(=O)(O)CP(=O)([O-])O | – | – | – | – | – | 1.9 µM
6 | CC(=O)NCP(=O)(O)CP(=O)(O)O | inactive | 177 µM | 190 µM | 51.7 µM | – | –
7 | CC(C)=CCC/C(C)=C/CC/[N+](C)=C/NCP(=O)(O)CP(=O)([O-])O | – | – | – | – | – | 4.2 µM

— ChEMBL document CHEMBL4699520, “A guanidinium-based inhibitor of a type I isopentenyl diphosphate isomerase” (Bioorg Med Chem Lett, 2020)
